Data on six compounds can be found in patent publication US20240228987A1, “HEXOKINASE-DERIVED PEPTIDES AND THERAPEUTICAL USES THEREOF” (INSERM (INSTITUT NATIONAL DE LA SANTÉ ET DE LA RECHERCHE …, priority 2021, published 2024).

For series [1], the target named is T1, VDAC (Homo sapiens, UniProt P21796).
T1 construct: HEK-293 cells, expressing VDAC and HK; endogenous in cells; host or cells: HEK-293 (ATCC), transfected only with the Ca2+ probes mitoGCaMP2 / GCaMP2
The experiment in a line: live imaging of HEK-293 cells transfected with mitoGCaMP2 or GCaMP2, MJ treatment. It is filed as cell-based. To be noted: peptide at 33 μM, MJ 6 mM, 30 min. The procedure: (§1) FIG. 5. Time-lapse quantification of mitoGCaMP2 (A) and GCaMP2 (B) fluorescence levels within mitochondria and within the cytosol respectively. Quantifications of fluorescence levels of HEK-293 cells transfected with mitoGCaMP2 (A) and GCaMP2 (B) probes. Control (circle) represents the fluorescence level in mitochondria when treating the cells with the diluents 0.1 DMSO and 5% EtOH used for MJ and compound solubilization. MJ was tested at 6 mM and compound 1a at 33 μM. Statistical analysis using two-way ANOVA followed by Tukeys's multiple comparison tests (N=3 independent experiments). Results are expressed as means±SEM. **p<0.01, ****p<0.0001, ns. non significant. A. U. arbitrary unit
(§2) Live imaging experiments were performed on HEK-293 cells transfected with either the mitoGCaMP2 or the GCaMP2 plasmids. 500,000 cells per well were seeded in 6-well microplate (NUNC, reference 153066, Thermo Fisher Scientific, France) in 1 ml of DMEM supplemented with 10% FBS and 1% PS. 48 h after seeding, cells were transfected with 2 μg of mitoGCaMP2 or GCaMP2 plasmids using jet-PRIME reagent according to the manufacturer's protocol. 48h after transfection, the microplates were placed under a videomicroscope equipped with a humidified chamber at 37° C. and with 5% CO2. Next, 6 mM of pre-heated MJ (37° C.) was added to the wells with or without the peptide 1a at 33 μM in 1 ml of DMEM without red phenol supplemented with 10% FBS and 1% PS, and containing 0.1% DMSO and 5% EtOH. In parallel, wells containing only 1 ml of DMEM without red phenol and with 10% FBS, 1% PS, 0.1% DMSO and 5% EtOH served as control condition. Live imaging acquisition was triggered when adding MJ with or without the peptide 1a. For the control condition, image acquisition was triggered after addition of 1 ml of DMEM without red phenol supplemented with 10% FBS and 1% PS, containing 0.1% DMSO and 5% EtOH. […] Overall, 5 ROIs per condition were analyzed using Zen software (Zen 2.3 lite, Zeiss, France) and ImageJ software (version 1.52o, NIH, USA). Results are expressed as the mean±SEM using GraphPad Prism software (version 8.0.1). […]

Series [2] addresses T1, VDAC. As to the kind of experiment: in-cellulo screening assay: HEK-293 cells transfected with mitoGCaMP2, MJ-induced mitochondrial Ca2+ release through VDAC. It is filed as cell-based.
Method: The activity of the designed compounds was assessed on HEK-293 cells transfected with mitoGCaMP2. 40,000 cells per well were seeded in 96-well-microplates coated with Poly-D-Lysine (reference 655946, Greiner Bio-One, France) in 200 μl of DMEM supplemented with 10% FBS and 1% PS. 24 h after seeding, cells were transfected with 50 ng of mitoGCaMP2 plasmid per well using jet-PRIME reagent (Polyplus-transfection S.A, France) according to the manufacturer's recommendations. 48 h after transfection, a first measure of fluorescence was performed using the microplate reader CLARIOstar® (BMG Labtech, France). This measurement represented the basal level of Ca2+ into the mitochondria upon transfection. After a wash with 100 μl of PBS, cells were incubated with a mixture of pre-heated (37° C.) MJ at a final concentration of 6 mM and compounds at the indicated final concentrations in PBS containing 0.1% DMSO and 5% EtOH. After 35 min in a cell incubator, a second measure of fluorescence was performed using the microplate reader CLARIOstar®. This measure represented the level of mitochondrial Ca2+ according to the peptide activity. Compounds were tested in triplicates per microplates and in three or five independent experiments for each peptide. For dose effect curves, compounds were tested in triplicates per microplates and in three independent experiments. Results are expressed as the ratio between the second and first measures and normalized to the conditions without compounds containing only PBS with 0.1% DMSO and 5% EtOH. Results are expressed as the means±SD in histogram plots and dose response curves using GraphPad Prism software (version 8.0.1).
The biological screening of the peptide is based on the ability of methyl jasmonate (MJ) to binds and detaches HK-1 from mitochondrial VDAC in a time and dose dependent manner.^16,20 For this purpose, we developed an in-cellulo screening assay in which HEK-293 cells, expressing VDAC and HK,25 were transfected with GCaMP2, a cytoplasmic Ca2+-sensing probe, or with mitoGCaMP2, the same probe addressed to mitochondrial matrix. […] MJ that removes HK from VDAC was used to induce a Ca2+ release outside mitochondria measured through a drop in mitoGCaMP2 fluorescence and an increase in GCaMP2 fluorescence in cells.
In series [3] the test system is VDAC. The experiment in a line: live imaging of HEK-293 cells transfected with mitoGCaMP2 or GCaMP2, MJ treatment. It is filed as cell-based. Particulars: MJ 6 mM. How it is done: as §1, §2
Series [4] relates to HEK293 cells. As to the kind of experiment: Rhod-2 mitochondrial calcium imaging in HEK293 cells, methyl jasmonate (Example 2). It is filed as cell-based. To be noted: methyl jasmonate 6 mM, 40 minutes; 5z peptide 5 μM or AAV9 infection. How it is done:
FIG. 12: AAV9 represents an efficient way to sustain anti-demyelinating peptide expression in target cells. HEK293 cells were infected with a control AAV9 or AAV9-HK peptide or not infected. Two days later cells were incubated with a fluorescent dye Rhod-2 that fluoresces with calcium in mitochondria. 15 minutes later infected cells were incubated with methyl jasmonate (6 mM) and non-infected cells were incubated with methyl jasmonate (6 mM)+5z peptide (5 μM) for 40 minutes. Pictures were taken every 5 minutes imaging Rhod-2 dye.
We produced an AAV9 virus expressing HK peptide 5z (AAV9-HK peptide). HEK293 cells were infected with a control AAV9 or AAV9-HK peptide or not infected. Two days later cells were incubated with a fluorescent dye Rhod-2 that fluoresces with calcium in mitochondria. 15 minutes later infected cells were incubated with methyl jasmonate (6 mM) and non-infected cells were incubated with methyl jasmonate (6 mM)+5z peptide (5 μM) for 40 minutes. Pictures were taken every 5 minutes imaging Rhod-2 dye.

Series [5] has as its system Schwann cells. To be noted: cited from earlier work.
For series [6], the target named is T1, VDAC. The experiment in a line: time-lapse recording of mitochondrial calcium probe mito-GCaMP2 in HEK293 cells treated with MJ and HK1 N-terminal peptides (FIG. 3). The series is classed as cell-based. Particulars: peptides at 5 microMolar, MJ 6 mM. How it is done: FIG. 3: Time-lapse recording of fluorescence intensity of the mitochondrial calcium probe in HEK293 cells treated with Methyl Jasmonate (MJ, 6 milliMolar) and Nterminal peptide of wt HK1 (HK1-Nt peptide) or Nterminal peptide of mutated HK1 (HKmut-Nt peptide). HEK 293 cells were transfected with a plasmid expressing mito-GCaMP2. 48 hours later cells were imaged using a Zeiss Axio-observer designed for live-imaging and treated with MJ (6 mM) and/or peptides at 5 microMolar. Peptide sequences: wt HK1 peptide Ac-[…]-NH2 (SEQ ID NO:90), CMT4G-mutated HK1 peptide Ac-[…]-NH2 (SEQ ID NO:91) and Control peptide Ac-[…]-NH2 (SEQ ID NO:92).

The conditions of series [7]: cited from earlier work.

Where a SMILES comes first, the peptide text is derived from it. [ ]: non-standard residue; d: D form. Nle = CCCC[C@H](N)C(=O)O

T1 sequence (P21796 2-283): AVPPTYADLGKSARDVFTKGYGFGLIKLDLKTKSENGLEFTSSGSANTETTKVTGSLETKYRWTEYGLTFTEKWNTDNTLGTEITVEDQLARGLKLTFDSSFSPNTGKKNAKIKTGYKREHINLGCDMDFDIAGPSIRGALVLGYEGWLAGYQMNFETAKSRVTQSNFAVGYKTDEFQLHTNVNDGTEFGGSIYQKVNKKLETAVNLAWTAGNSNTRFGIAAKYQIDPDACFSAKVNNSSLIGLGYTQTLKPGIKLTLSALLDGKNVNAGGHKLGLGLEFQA

In the case of `CCCC[C@H](NC(C)=O)C(=O)N[C@H](C(=O)N[C@@H](C)C(=O)N[C@@H](C)C(=O)N[C@@H](CCC(N)=O)C(=O)N[C@@H](CC(C)C)C(=O)N[C@@H](CC(C)C)C(=O)N[C@@H](C)C(=O)N[C@@H](Cc1ccc(O)cc1)C(=O)N[C@@H](Cc1ccc(O)cc1)C(=O)N[C@@H](Cc1ccccc1)C(=O)N[C@H](C(=O)N[C@@H](CCC(=O)O)C(=O)N[C@@H](CC(C)C)C(=O)N[C@@H](CCCCN)C(=O)NCC(=O)N[C@@H](CCCNC(=N)N)C(=O)N[C@@H](CCCCN)C(=O)N[C@@H](CCCCN)C(=O)N[C@@H](CCCNC(=N)N)C(=O)N[C@@H](CCCNC(=N)N)C(=O)N[C@@H](CCC(N)=O)C(=O)N[C@@H](CCCNC(=N)N)C(=O)N[C@@H](CCCNC(=N)N)C(=O)N[C@@H](CCCNC(=N)N)C(=O)N1CCC[C@H]1C(=O)N1CCC[C@H]1C(=O)N[C@@H](CCC(N)=O)C(N)=O)[C@@H](C)O)[C@@H](C)CC` [1a] (Ac-[Nle]IAAQLLAYYFTELKGRKKRRQRRRPPQ-NH2), the “fluorescence change induced by MJ treatment (mitoGCaMP2 and GCaMP2)” value in series [1] is “blocked”. The IC50 in series [2] (HEK-293 mitoGCaMP2, MJ 6 mM, 35 min, dose response, read-out: IC50 on mitochondrial Ca2+ release through VDAC) was determined as 15.6 ± 2 µM. `CC/C=C\CC1C(=O)CCC1CC(=O)OC` (centres unmarked) [MJ, Methyl jasmonate]: the “mitoGCaMP2 fluorescence (mitochondrial Ca2+)” value in series [3] (at least 30 min) is given as “significant decrease”. The “GCaMP2 fluorescence (cytoplasmic Ca2+)” value in series [3] (same timeframe) was “increased significantly”. Moreover, the “Rhod-2 fluorescence in mitochondria” value in series [4] is “decrease”. The demyelination result in series [5] is recorded as “spontaneous demyelination”. Turning to “AQWWAYYYTEWK [5z, tested peptide also contains Tat]”, the “Rhod-2 fluorescence in mitochondria” value in series [4] is “no decrease occurred”. The “activity / affinity for VDAC on the screening assay (mitoGCaMP2 fluorescence)” value in series [2] (compounds at 3 μM, MJ 6 mM, compared with 3c, 4d or 5x) is “more significant”. For “Ac-MGQICQRESATAAEKGRKKRRQRRRPPQ-NH2 [peptide derived from the mutant HK1]”, the “mitochondrial calcium release following MJ treatment” value in series [6] is on record as “no effect”.

Ac-MIAAQLLAYYFTELKGRKKRRQRRRPPQ-NH2: the “mitochondrial calcium release following MJ treatment” value in series [6] was “able to prevent mitochondrial calcium release”. Consider GRKKRRQRRRPQ [Tat], for which the half-life in serum result in series [7] is “less than 6 min”.
